Data: article PMC1887769 (The Journal of General Physiology, 1998)

Molecular target: T1, αβγXENaC (Xenopus ENaC) (Xenopus laevis, UniProt P51167+P51169+P51171)
T1 sequence (P51167 1-632): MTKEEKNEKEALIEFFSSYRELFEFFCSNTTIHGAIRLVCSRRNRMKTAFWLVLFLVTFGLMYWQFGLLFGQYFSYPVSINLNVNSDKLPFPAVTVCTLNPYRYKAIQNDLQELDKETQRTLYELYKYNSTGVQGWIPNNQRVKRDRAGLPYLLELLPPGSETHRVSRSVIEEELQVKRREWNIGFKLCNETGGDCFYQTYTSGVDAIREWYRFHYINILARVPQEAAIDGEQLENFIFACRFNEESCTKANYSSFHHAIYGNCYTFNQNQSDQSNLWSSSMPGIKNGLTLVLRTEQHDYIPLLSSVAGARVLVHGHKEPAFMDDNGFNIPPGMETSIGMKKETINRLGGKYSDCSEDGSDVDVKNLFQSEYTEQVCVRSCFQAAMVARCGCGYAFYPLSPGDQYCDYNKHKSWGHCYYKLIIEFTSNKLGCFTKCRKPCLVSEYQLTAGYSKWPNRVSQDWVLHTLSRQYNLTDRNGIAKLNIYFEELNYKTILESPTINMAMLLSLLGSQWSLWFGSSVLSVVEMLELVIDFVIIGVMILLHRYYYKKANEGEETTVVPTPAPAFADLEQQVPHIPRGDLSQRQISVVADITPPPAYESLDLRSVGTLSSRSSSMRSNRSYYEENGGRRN
T1 sequence (P51169 1-647): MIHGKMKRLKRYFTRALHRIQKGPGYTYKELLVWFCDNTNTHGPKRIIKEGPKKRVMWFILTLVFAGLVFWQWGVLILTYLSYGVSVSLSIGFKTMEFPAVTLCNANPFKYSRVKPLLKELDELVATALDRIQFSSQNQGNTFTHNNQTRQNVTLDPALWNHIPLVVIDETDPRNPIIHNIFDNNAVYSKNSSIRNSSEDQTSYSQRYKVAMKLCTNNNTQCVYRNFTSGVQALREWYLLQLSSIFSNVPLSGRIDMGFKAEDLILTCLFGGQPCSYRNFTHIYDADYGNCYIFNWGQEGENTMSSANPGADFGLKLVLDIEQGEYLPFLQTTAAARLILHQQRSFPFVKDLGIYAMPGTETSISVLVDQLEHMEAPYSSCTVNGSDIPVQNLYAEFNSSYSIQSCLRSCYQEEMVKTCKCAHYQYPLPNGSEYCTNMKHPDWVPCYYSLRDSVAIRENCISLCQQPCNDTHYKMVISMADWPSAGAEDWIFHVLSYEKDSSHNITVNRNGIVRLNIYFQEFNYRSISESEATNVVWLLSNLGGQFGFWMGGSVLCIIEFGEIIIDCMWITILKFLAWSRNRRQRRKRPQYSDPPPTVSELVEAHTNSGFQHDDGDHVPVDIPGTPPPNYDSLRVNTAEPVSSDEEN
T1 sequence (P51171 1-660): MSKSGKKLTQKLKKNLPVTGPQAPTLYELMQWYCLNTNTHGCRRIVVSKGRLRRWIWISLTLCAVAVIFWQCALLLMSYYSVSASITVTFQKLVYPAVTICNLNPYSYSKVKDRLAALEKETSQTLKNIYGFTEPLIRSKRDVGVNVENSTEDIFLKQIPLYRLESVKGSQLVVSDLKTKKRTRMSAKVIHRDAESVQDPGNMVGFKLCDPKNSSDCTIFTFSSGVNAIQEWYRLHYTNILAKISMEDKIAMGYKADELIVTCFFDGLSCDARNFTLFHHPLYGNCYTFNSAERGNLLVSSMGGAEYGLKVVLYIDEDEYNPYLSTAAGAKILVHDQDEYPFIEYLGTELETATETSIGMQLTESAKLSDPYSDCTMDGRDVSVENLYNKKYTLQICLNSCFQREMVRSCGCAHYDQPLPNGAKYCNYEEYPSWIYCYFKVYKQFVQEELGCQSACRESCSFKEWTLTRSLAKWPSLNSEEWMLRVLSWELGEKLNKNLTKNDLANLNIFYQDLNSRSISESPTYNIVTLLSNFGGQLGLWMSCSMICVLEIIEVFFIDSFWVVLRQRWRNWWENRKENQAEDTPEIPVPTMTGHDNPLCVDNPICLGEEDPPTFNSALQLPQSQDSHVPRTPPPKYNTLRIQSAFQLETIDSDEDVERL
Assay: two-electrode voltage clamp of Na+ current in oocytes
Assay type: cell-based

- Ki: 550 ± 30 nM
Compound: N=C(N)NC(=O)c1nc(Cl)c(N)nc1N [amiloride]
